From publication PMC7377239, “Cardiovascular Effects of Polychlorinated Biphenyls and Their Major Metabolites” (Environmental Health Perspectives, 2020)
Where two headings read alike, the source gives them in different places.

Tested on: iCell cardiomyocytes (human iPSC-derived cardiomyocytes)
Assay: Intracellular Ca2+ flux / beating parameters in iCell cardiomyocytes (FLIPR tetra), 90 min or 24 h
Format: cell-based
Conditions: for activity at 0.01 µM / activity at 0.1 µM / activity at 1 µM / activity at 10 µM / activity at 100 µM: Homo sapiens, Cardiomyocyte, 0.00 µM = 100.00; for activity at 0.1 µM: 0.10 µM; for inotropic effect (cell beating parameters): iPSC-CMs, concentration-response 0.01-100 μM, 90 min and 24 h
Outline: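 PODs were defined as the concentration crossing one SD of the vehicle-control means (0.5% DMSO) on four-parameter logistic fits of Ca2+ trace metrics (peak height, frequency, peak-spacing CV, decay/rise ratio). Traces came from 100 s, 8 Hz FLIPR reads at 37 °C on calcium-dye-loaded iCell cardiomyocytes. Before reading, cells were treated for 90 min or 24 h from 5× chemical plates spanning 0.05–500 µM, in triplicate.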

[1] = 1.5 h, 90min, read-out: cm.amp.avg.90min
[2] = 1.5 h, 90min, read-out: cm.amp.cv.90min
[3] = 1.5 h, 90min, read-out: cm.bpm.90min
[4] = 1.5 h, 90min, read-out: cm.decay.rise.90min
[5] = 1.5 h, 90min, read-out: cm.spacing.cv.90min
[6] = 24 h, 24hrs, read-out: cm.amp.avg.24hrs
[7] = 24 h, 24hrs, read-out: cm.amp.cv.24hrs
[8] = 24 h, 24hrs, read-out: cm.bpm.24hrs
[9] = 24 h, 24hrs, read-out: cm.decay.rise.24hrs
[10] = 24 h, 24hrs, read-out: cm.spacing.cv.24hrs

Clc1cc(Cl)c(-c2cc(Cl)c(Cl)cc2Cl)cc1Cl [PCB153]
activity at 0.01 µM [1]: 105% | activity at 0.01 µM [2]: 113% | activity at 0.01 µM [3]: 107% | activity at 0.01 µM [4]: 97.7% | activity at 0.01 µM [5]: 119% | activity at 0.1 µM [1]: 107% | activity at 0.1 µM [2]: 98.7% | activity at 0.1 µM [3]: 97.8% | activity at 0.1 µM [4]: 100% | activity at 0.1 µM [5]: 102% | activity at 1 µM [1]: 108% | activity at 1 µM [2]: 121% | activity at 1 µM [3]: 103% | activity at 1 µM [4]: 92.5% | activity at 1 µM [5]: 108% | activity at 10 µM [1]: 93.7% | activity at 10 µM [2]: 126% | activity at 10 µM [3]: 120% | activity at 10 µM [4]: 92.4% | activity at 10 µM [5]: 119% | activity at 100 µM [1]: 0% | activity at 100 µM [2]: 0% | activity at 100 µM [3]: 0% | activity at 100 µM [4]: 0% | activity at 100 µM [5]: 0% | activity at 0.01 µM [6]: 50.2% | activity at 0.01 µM [7]: 50.5% | activity at 0.01 µM [8]: 51.5% | activity at 0.01 µM [9]: 57.7% | activity at 0.01 µM [10]: 50.2% | activity at 0.1 µM [6]: 81.6% | activity at 0.1 µM [7]: 123% | activity at 0.1 µM [8]: 101% | activity at 0.1 µM [9]: 92.5% | activity at 0.1 µM [10]: 108% | activity at 1 µM [6]: 125% | activity at 1 µM [7]: 84.9% | activity at 1 µM [8]: 99.3% | activity at 1 µM [9]: 102% | activity at 1 µM [10]: 97.8% | activity at 10 µM [6]: 122% | activity at 10 µM [7]: 120% | activity at 10 µM [8]: 129% | activity at 10 µM [9]: 93% | activity at 10 µM [10]: 121% | activity at 100 µM [6]: 0% | activity at 100 µM [7]: 0% | activity at 100 µM [8]: 0% | activity at 100 µM [9]: 0% | activity at 100 µM [10]: 0%

Clc1ccc(-c2ccccc2)cc1 [PCB 3, 4-chlorobiphenyl]
inotropic effect (cell beating parameters): positive inotropic effects

Clc1ccc(-c2cc(Cl)c(Cl)c(Cl)c2)cc1Cl [PCB 126, 3,3′,4,4′,5-pentachlorobiphenyl]
inotropic effect (cell beating parameters): positive inotropic effects
